Experimental data: US20220378761A1, “PAPD5 Inhibition As A Treatment For Dyskeratosis Congenita, Aplastic Anemia And Myelodysplastic Syndrome Caused By Reduced Telomerase RNA Levels” (The Regents of The University of Colorado, A Body Corporate, priority 2019, published 2022)

How the values were obtained:
TERC = TERC localization to cajal bodies by fluorescent microscopy (coilin IF, TERC FISH) in HeLa cells; type: cell-based, Homo sapiens; settings: RG7834 for 2 days
Description: Th present inventors have previously shown that in DKC1- or PARN-depleted cells, TERC accumulates in cytoplasmic puncta called “cyTER bodies,” instead of its normal localization to cajal bodies in the nucleus. To investigate whether RG7834 treatment rescued TERC localization to cajal bodies in the nucleus, DKC1- or PARN-depleted cells were treated with RG7834 for 2 days. […] Upon treatment with RG7834, —38% of cells had TERC localized to cajal bodies, which is consistent with the 1.5× increase in TERC levels in these cells. RG7834 treatment also rescued TERC localization to cajal bodies in PARN-depleted cells. In PARN knockdown cells, ˜34% of cells had TERC in cajal bodies, with TERC also mostly being localized to cyTER bodies in these cells. However, upon RG7834 treatment, ˜85% of cells had TERC localized to cajal bodies.
Fluorescent microscopy for Cajal bodies and TERC: Cells were seeded directly on glass coverslips (ethanol washed) in 6-well plates and transfected and drug treated as previously described. Coverslips were washed once with 1× DPBS and fixed with 4% formaldehyde in 1× DPBS at room temperature for 10 minutes. Cells were permeabilized in 0.2% Triton 1× DPBS for 10 minutes, and then incubated with rabbit anti-Coilin (Santa Cruz) for 1 hour at room temperature. […]

DKC1_A353V hESCs [1] = test: Telomere length by telomere restriction fragment analysis in DKC1_A353V hESCs; type: cell-based, Homo sapiens; settings: sustained treatment up to 3 months
Description: Telomere length analysis: Telomere length analysis were performed by Telomere Repeat Fragment (TRF) technique. Briefly, DNA was extracted using tail lysis buffer (10 mM Tris-HCl, pH 8.0, 100 mM NaCl, 10 mM EDTA, 0.5% SDS supplemented with 400 μg/ml Proteinase K) at 55° C. overnight. 10 μg of DNA was digested with Rsa1 and Hinf1 restriction enzymes (New England Biolabs, Ispwich, Mass.) overnight and 2.5 μg of product was resolved in a 0.75% agarose gel for 16 hr at 85V in TBE buffer. The gel was incubated with denaturing buffer (1.5M NaCl and 0.5M NaOH) for 45 min followed by neutralizing buffer (1.5M NaCl, 1M Tris-HCl at pH 7.4) for 1 hr. DNA was transferred to a nitrocellulose membrane by capillary action for 2 days in 10× saline-sodium citrate (3M NaCl, 0.3M sodium citrate dehydrate at pH 7.0). After cross-linking, the membrane was hybridized with a ^32P-labelled probe (CCCTAA) and exposed to Carestream BioMax MT film. Mean telomere length was analyzed using TeloTool with the corrected and nonlinear fit order 1 ladder fit options.

cell culture models = settings: cited from earlier work
TERT = TERT quantification by qRT-PCR in DKC1_A353V hESCs; type: cell-based, Homo sapiens; settings: up to 30 days
Text: Treatment of DKC1_A353V hESCs with RG7834 caused a >15-fold reduction in the 3′-end oligoadenylation of TERC, indicating efficient PAPD5 inhibition in these cells (FIG. 2A).
RNA extraction and Quantitative real-time PCR: Total RNA was isolated using Trizol (Invitrogen) in accordance with the manufacturer's instructions followed by Turbo DNA-free DNase (Invitrogen) treatment. RNA was converted into cDNA using Superscript III First Strand synthesis kit (Invitrogen) following manufacturer's instructions. Real-time PCR was performed using Evagreen master mix (Lambda Biotech, St. Louis, Mo.) on a StepOne Plus instrument DNase treatment (Thermo Fisher Scientific). For TERC analysis, Brilliant II 1-step qRT-PCR master mix (Agilent, Santa Clara, Calif.) was used following manufacturer's instructions. Reactions were performed in triplicates with 100 ng of RNA per reaction and used gene-specific (for/rev) primers were as follows: […]

DKC1_A353V hESCs [2] = test: Whole-genome RNA-sequencing of DKC1_A353V hESCs; type: cell-based, Homo sapiens; settings: 1 μM RG7834 vs DMSO
Description: The present inventors investigated if treatment with RG7834 was sufficient to reduce DNA damage signaling arising from eroded telomeres, a hallmark of DC.
RNA-seq of transcriptome from DMSO or RG7834 treated DKC1_A353V cells: RNA was extracted from DMSO or RG7834 (1 μM) treated DKC1 mutant cells using Trizol as per manufacturer's instructions and contaminating DNA was removed using TURBO DNase. 1 μg of total RNA in triplicate from each condition was depleted of ribosomal RNA using Ribocop rRNA depletion kit V3 (Lexogen). 50 ng of recovered total RNA was used for strand-specific library preparation using the Rapid Directional RNA-seq kit 2.0 (Perkin Elmer) as per manufacturer's protocol. Prepared libraries were sequenced on an Illumina HiSeq using 2×150 paired end sequencing kit. Demultiplexed reads were checked for quality using the FastQC tool and subjected to adapter trimming using Trimmomatic. Trimmed reads were aligned to the hg38 p13 version 99 human genome release and annotation obtained from ENSEMBL using the STAR alignment software. Aligned files were sorted according to chromosomal coordinate and compressed to BAM files. HTSeq was used to count the number of reads for each gene from BAM files. Read counts were used for downstream analysis for changes in gene expression using DESeq2. […]

COCCCOc1cc2c(cc1OC)-c1cc(=O)c(C(=O)O)cn1[C@H](C(C)C)C2 [RG7834]
cells with TERC localized to cajal bodies (TERC; DKC1 knockdown): ~38%
cells with TERC localized to cajal bodies (TERC; PARN knockdown): ~85%
telomere maintenance (telomere length) (DKC1_A353V hESCs [1]): improved telomere maintenance
toxicity in cell culture models (cell culture models): low toxicity
levels of telomerase reverse transcriptase (TERT) (TERT): remained unchanged
changes in gene expression (DKC1_A353V hESCs [2]): did not lead to significant changes in gene expression
